Measurements reported in ChEMBL document CHEMBL3045602, “Synthesis and antimicrobial activity of novel derivatives of Biginelli pyrimidines” (2012).
In brackets after ≈: the same amount, converted by molar mass.

What was measured:
Type in all cases: functional
Candida albicans = experiment: Antimicrobial activity against Candida albicans PTCC 5027 after 24 hr by Alamar blue assay; conditions: PTCC 5027, 24 h
Aspergillus niger = experiment: Antimicrobial activity against Aspergillus niger 5021 after 24 hr by Alamar blue assay; conditions: Aspergillus niger, 5021, 24 h
Bacillus subtilis = experiment: Antimicrobial activity against Bacillus subtilis PTCC 1023 after 24 hr by Alamar blue assay; conditions: PTCC 1023, 24 h
Listeria monocytogenes = experiment: Antimicrobial activity against Listeria monocytogenes PTCC 1165 after 24 hr by Alamar blue assay; conditions: PTCC 1165, 24 h
Staphylococcus aureus = experiment: Antimicrobial activity against Staphylococcus aureus PTCC 1337 after 24 hr by Alamar blue assay; conditions: PTCC 1337, 24 h
Pseudomonas aeruginosa = experiment: Antimicrobial activity against Pseudomonas aeruginosa PTCC 1074 after 24 hr by Alamar blue assay; conditions: PTCC 1074, 24 h
Salmonella enteritidis = experiment: Antimicrobial activity against Salmonella enterica subsp. enterica serovar Enteritidis PTCC 1091 after 24 hr by Alamar blue assay; conditions: PTCC 1091, 24 h
Escherichia coli = experiment: Antimicrobial activity against Escherichia coli PTCC 1338 after 24 hr by Alamar blue assay; conditions: PTCC 1338, 24 h

SMILES | MIC (Candida albicans) | MIC (Aspergillus niger) | MIC (Bacillus subtilis) | MIC (Listeria monocytogenes) | MIC (Staphylococcus aureus) | MIC (Pseudomonas aeruginosa) | MIC (Salmonella enteritidis) | MIC (Escherichia coli)
CSc1ncc(C2NC(=O)NC(C)=C2C(=O)Nc2ccccn2)n1Nc1ccccc1 (configuration not stated) | 32 µg/mL (≈ 73.5 µM) | 64 µg/mL (≈ 147 µM) | > 512 µg/mL | > 512 µg/mL | > 512 µg/mL | > 512 µg/mL | > 512 µg/mL | > 512 µg/mL
COC(=O)C1=C(C)NC(=O)NC1c1cnc(SC)n1Cc1ccccc1 (configuration not stated) | 256 µg/mL (≈ 687 µM) | 256 µg/mL (≈ 687 µM) | 512 µg/mL (≈ 1370 µM) | > 512 µg/mL | 512 µg/mL (≈ 1370 µM) | 512 µg/mL (≈ 1370 µM) | > 512 µg/mL | 512 µg/mL (≈ 1370 µM)
CSc1ncc(C2NC(=O)NC(C)=C2C(=O)Nc2ccccn2)n1Cc1ccccc1 (configuration not stated) | 64 µg/mL (≈ 147 µM) | 128 µg/mL (≈ 295 µM) | > 512 µg/mL | > 512 µg/mL | > 512 µg/mL | 256 µg/mL (≈ 589 µM) | > 512 µg/mL | 256 µg/mL (≈ 589 µM)
CSc1ncc(C2NC(=O)NC(C)=C2C(=O)Nc2ccccc2Cl)n1Nc1ccccc1 (configuration not stated) | 128 µg/mL (≈ 273 µM) | 128 µg/mL (≈ 273 µM) | > 512 µg/mL | > 512 µg/mL | > 512 µg/mL | 256 µg/mL (≈ 546 µM) | > 512 µg/mL | 256 µg/mL (≈ 546 µM)
CC1=C(C(=O)Nc2cccc(Cl)c2)C(c2cccs2)NC(=O)N1 (configuration not stated) | > 512 µg/mL | > 512 µg/mL | 512 µg/mL (≈ 1470 µM) | 256 µg/mL (≈ 736 µM) | 512 µg/mL (≈ 1470 µM) | > 512 µg/mL | > 512 µg/mL | > 512 µg/mL
CSc1ncc(C2NC(=O)NC(C)=C2C(=O)Nc2ccc(Cl)cc2)n1Cc1ccccc1 (configuration not stated) | 256 µg/mL (≈ 547 µM) | 256 µg/mL (≈ 547 µM) | > 512 µg/mL | > 512 µg/mL | 256 µg/mL (≈ 547 µM) | 256 µg/mL (≈ 547 µM) | > 512 µg/mL | 256 µg/mL (≈ 547 µM)
CCOC(=O)C1=C(C)NC(=O)NC1c1cnc(SC)n1Cc1ccccc1 (configuration not stated) | 64 µg/mL (≈ 166 µM) | 64 µg/mL (≈ 166 µM) | 512 µg/mL (≈ 1320 µM) | 512 µg/mL (≈ 1320 µM) | > 512 µg/mL | 256 µg/mL (≈ 662 µM) | 512 µg/mL (≈ 1320 µM) | 256 µg/mL (≈ 662 µM)
CSc1ncc(C2NC(=O)NC(C)=C2C(=O)Nc2ccccc2Cl)n1Cc1ccccc1 (configuration not stated) | 256 µg/mL (≈ 547 µM) | 256 µg/mL (≈ 547 µM) | > 512 µg/mL | > 512 µg/mL | > 512 µg/mL | 512 µg/mL (≈ 1090 µM) | > 512 µg/mL | 512 µg/mL (≈ 1090 µM)
CSc1ncc(C2NC(=O)NC(C)=C2C(=O)Nc2cccc(Cl)c2)n1Cc1ccccc1 (configuration not stated) | 256 µg/mL (≈ 547 µM) | 128 µg/mL (≈ 274 µM) | 256 µg/mL (≈ 547 µM) | > 512 µg/mL | 128 µg/mL (≈ 274 µM) | 256 µg/mL (≈ 547 µM) | 256 µg/mL (≈ 547 µM) | > 512 µg/mL
CC1=C(C(=O)Nc2cccnc2)C(c2cccs2)NC(=O)N1 (configuration not stated) | > 512 µg/mL | > 512 µg/mL | > 512 µg/mL | 512 µg/mL (≈ 1630 µM) | > 512 µg/mL | 512 µg/mL (≈ 1630 µM) | 512 µg/mL (≈ 1630 µM) | > 512 µg/mL
CC1=C(C(=O)Nc2ccccc2Cl)C(c2cccs2)NC(=O)N1 (configuration not stated) | > 512 µg/mL | > 512 µg/mL | 256 µg/mL (≈ 736 µM) | 256 µg/mL (≈ 736 µM) | 512 µg/mL (≈ 1470 µM) | > 512 µg/mL | > 512 µg/mL | > 512 µg/mL
CSc1ncc(C2NC(=O)NC(C)=C2C(=O)Nc2cccnc2)n1Nc1ccccc1 (configuration not stated) | 32 µg/mL (≈ 73.5 µM) | 64 µg/mL (≈ 147 µM) | > 512 µg/mL | > 512 µg/mL | > 512 µg/mL | 512 µg/mL (≈ 1180 µM) | > 512 µg/mL | 512 µg/mL (≈ 1180 µM)
CC1=C(C(=O)OC(C)C)C(c2cccs2)NC(S)=N1 (configuration not stated) | > 512 µg/mL | > 512 µg/mL | > 512 µg/mL | > 512 µg/mL | > 512 µg/mL | > 512 µg/mL | > 512 µg/mL | > 512 µg/mL
CC1=C(C(=O)Nc2ccccn2)C(c2cccs2)NC(=O)N1 (configuration not stated) | > 512 µg/mL | > 512 µg/mL | > 512 µg/mL | 512 µg/mL (≈ 1630 µM) | 512 µg/mL (≈ 1630 µM) | 512 µg/mL (≈ 1630 µM) | 512 µg/mL (≈ 1630 µM) | > 512 µg/mL
CSc1ncc(C2NC(=O)NC(C)=C2C(=O)Nc2cccnc2)n1Cc1ccccc1 (configuration not stated) | 128 µg/mL (≈ 295 µM) | 128 µg/mL (≈ 295 µM) | 512 µg/mL (≈ 1180 µM) | > 512 µg/mL | 512 µg/mL (≈ 1180 µM) | 256 µg/mL (≈ 589 µM) | 512 µg/mL (≈ 1180 µM) | 256 µg/mL (≈ 589 µM)
CCOC(=O)C1=C(C)NC(=O)NC1c1cnc(SC)n1Nc1ccccc1 (configuration not stated) | 64 µg/mL (≈ 165 µM) | 128 µg/mL (≈ 330 µM) | > 512 µg/mL | > 512 µg/mL | > 512 µg/mL | 128 µg/mL (≈ 330 µM) | 512 µg/mL (≈ 1320 µM) | 256 µg/mL (≈ 661 µM)
CCCCOC(=O)C1=C(C)NC(=S)NC1c1cccs1 (configuration not stated) | > 512 µg/mL | > 512 µg/mL | 512 µg/mL (≈ 1650 µM) | 512 µg/mL (≈ 1650 µM) | 512 µg/mL (≈ 1650 µM) | 512 µg/mL (≈ 1650 µM) | > 512 µg/mL | 256 µg/mL (≈ 825 µM)
COC(=O)C1=C(C)NC(=O)NC1c1cnc(SC)n1Nc1ccccc1 (configuration not stated) | 128 µg/mL (≈ 343 µM) | 128 µg/mL (≈ 343 µM) | > 512 µg/mL | > 512 µg/mL | > 512 µg/mL | 256 µg/mL (≈ 686 µM) | 512 µg/mL (≈ 1370 µM) | 512 µg/mL (≈ 1370 µM)
CC(=O)N1CCN(c2ccc(OCC3COC(Cn4ccnc4)(c4ccc(Cl)cc4Cl)O3)cc2)CC1 (configuration not stated) [KETOCONAZOLE] | 2 µg/mL (≈ 3.76 µM) | 4 µg/mL (≈ 7.53 µM) | – | – | – | – | – | –
CC1=C(C(=O)Nc2ccc(Cl)cc2)C(c2cccs2)NC(=O)N1 (configuration not stated) | > 512 µg/mL | > 512 µg/mL | 512 µg/mL (≈ 1470 µM) | 512 µg/mL (≈ 1470 µM) | 256 µg/mL (≈ 736 µM) | 512 µg/mL (≈ 1470 µM) | 512 µg/mL (≈ 1470 µM) | > 512 µg/mL
CC1=C(C(=O)OCC(C)C)C(c2cccs2)NC(S)=N1 (configuration not stated) | > 512 µg/mL | > 512 µg/mL | > 512 µg/mL | 512 µg/mL (≈ 1650 µM) | 512 µg/mL (≈ 1650 µM) | > 512 µg/mL | > 512 µg/mL | 512 µg/mL (≈ 1650 µM)
CSc1ncc(C2NC(=O)NC(C)=C2C(=O)Nc2ccc(Cl)cc2)n1Nc1ccccc1 (configuration not stated) | 32 µg/mL (≈ 68.2 µM) | 64 µg/mL (≈ 136 µM) | > 512 µg/mL | > 512 µg/mL | > 512 µg/mL | > 512 µg/mL | 512 µg/mL (≈ 1090 µM) | 512 µg/mL (≈ 1090 µM)
CSc1ncc(C2NC(=O)NC(C)=C2C(=O)Nc2cccc(Cl)c2)n1Nc1ccccc1 (configuration not stated) | 128 µg/mL (≈ 273 µM) | 128 µg/mL (≈ 273 µM) | > 512 µg/mL | > 512 µg/mL | > 512 µg/mL | 512 µg/mL (≈ 1090 µM) | > 512 µg/mL | > 512 µg/mL
O=C(O)c1cn(C2CC2)c2cc(N3CCNCC3)c(F)cc2c1=O [CIPROFLOXACIN] | – | – | 0.06 µg/mL (≈ 0.181 µM) | 1 µg/mL (≈ 3.02 µM) | 0.5 µg/mL (≈ 1.51 µM) | – | 1 µg/mL (≈ 3.02 µM) | –
